Molecular target: T1, Carbonic Anhydrase IX (CA IX) (Homo sapiens, UniProt Q16790)
T1 construct: gene CA9; AA 1-459, GST tag
Assay: CA inhibitor screening kit (BioVision K473-100), recombinant CA IX, absorbance at […] nm, kinetic mode
Format: biochemical

IC50 [µM]	Compound
0.128	Nc1nn(-c2ccccc2)c(-c2ccccc2)c1C(=O)Nc1ccc(S(=O)(=O)Nc2ccccn2)cc1 [compound 11, 3-Amino-1,5-diphenyl-N-(4-(N-(pyridin-2-yl)sulfamoyl)phenyl)-1H-pyrazole-4-carboxamide]
0.336	Nc1cc(Nc2ccc(S(=O)(=O)Nc3ccccn3)cc2)n(-c2ccccc2)n1 [compound 3, 4-((3-Amino-1-phenyl-1H-pyrazol-5-yl)amino)-N-(pyridin-2-yl) benzenesulfonamide]
